Laboratory results taken from ChEMBL document CHEMBL3046778, “Design, synthesis and pharmacological screening of hybrid molecules as antihypertensives” (Med Chem Res, 2011).

Assays:
Rattus norvegicus [1] = experiment: Toxicity in Rattus norvegicus Wistar (rat) assessed as Rmax at 50 mg/kg, ip measured after 60 min by ECG analysis (reference value: 0.07 +/- 0.004 mv); type: organism-based; parameters: dose 50 mg/kg, route intraperitoneal; details: in vivo, 1 h
Rattus norvegicus [2] = experiment: Toxicity in Rattus norvegicus Wistar (rat) assessed as Rmax at 50 mg/kg, ip measured after 45 min by ECG analysis (reference value: 0.08 +/- 0.008 mv); type: organism-based; parameters: dose 50 mg/kg, route intraperitoneal; details: in vivo, 0.75 h
Rattus norvegicus [3] = experiment: Toxicity in Rattus norvegicus Wistar (rat) assessed as Rmax at 50 mg/kg, ip measured after 30 min by ECG analysis (reference value: 0.08 +/- 0.008 mv); type: organism-based; parameters: dose 50 mg/kg, route intraperitoneal; details: in vivo, 0.5 h
Rattus norvegicus [4] = experiment: Toxicity in Rattus norvegicus Wistar (rat) assessed as heart rate at 50 mg/kg, ip measured after 60 min by ECG analysis (reference value: 307.62 +/- 0.053 bpm); type: organism-based; parameters: dose 50 mg/kg, route intraperitoneal; details: in vivo, 1 h
Rattus norvegicus [5] = experiment: Toxicity in Rattus norvegicus Wistar (rat) assessed as heart rate at 50 mg/kg, ip measured after 45 min by ECG analysis (reference value: 307.62 +/- 0.023 bpm); type: organism-based; parameters: dose 50 mg/kg, route intraperitoneal; details: in vivo, 0.75 h
Rattus norvegicus [6] = experiment: Toxicity in Rattus norvegicus Wistar (rat) assessed as heart rate at 50 mg/kg, ip measured after 30 min by ECG analysis (reference value: 307.62 +/- 0.439 bpm); type: organism-based; parameters: dose 50 mg/kg, route intraperitoneal; details: in vivo, 0.5 h
Heart [7] = experiment: Inhibition of force of contraction in Hoplobatrachus tigerinus (frog) heart at log dose 2.9; type: functional
Heart [8] = experiment: Inhibition of force of contraction in Hoplobatrachus tigerinus (frog) heart at log dose 2.6; type: functional
Heart [9] = experiment: Inhibition of force of contraction in Hoplobatrachus tigerinus (frog) heart at log dose 2.3; type: functional
Heart [10] = experiment: Inhibition of force of contraction in Hoplobatrachus tigerinus (frog) heart at log dose 2; type: functional
Rattus norvegicus [11] = experiment: Toxicity in Rattus norvegicus Wistar (rat) assessed as Rmax at 10 mg/kg, ip measured after 45 min by ECG analysis (reference value: 0.08 +/- 0.008 mv); type: organism-based; parameters: dose 10 mg/kg, route intraperitoneal; details: in vivo, 0.75 h
Rattus norvegicus [12] = experiment: Toxicity in Rattus norvegicus Wistar (rat) assessed as Rmax at 10 mg/kg, ip measured after 60 min by ECG analysis (reference value: 0.07 +/- 0.004 mv); type: organism-based; parameters: dose 10 mg/kg, route intraperitoneal; details: in vivo, 1 h
Rattus norvegicus [13] = experiment: Toxicity in Rattus norvegicus Wistar (rat) assessed as Rmax at 10 mg/kg, ip measured after 30 min by ECG analysis (reference value: 0.08 +/- 0.008 mv); type: organism-based; parameters: dose 10 mg/kg, route intraperitoneal; details: in vivo, 0.5 h
Rattus norvegicus [14] = experiment: Toxicity in Rattus norvegicus Wistar (rat) assessed as heart rate at 10 mg/kg, ip measured after 60 min by ECG analysis (reference value: 307.62 +/- 0.053 bpm); type: organism-based; parameters: dose 10 mg/kg, route intraperitoneal; details: in vivo, 1 h
Rattus norvegicus [15] = experiment: Toxicity in Rattus norvegicus Wistar (rat) assessed as heart rate at 10 mg/kg, ip measured after 45 min by ECG analysis (reference value: 307.62 +/- 0.023 bpm); type: organism-based; parameters: dose 10 mg/kg, route intraperitoneal; details: in vivo, 0.75 h
Rattus norvegicus [16] = experiment: Toxicity in Rattus norvegicus Wistar (rat) assessed as heart rate at 10 mg/kg, ip measured after 30 min by ECG analysis (reference value: 307.62 +/- 0.035 bpm); type: organism-based; parameters: dose 10 mg/kg, route intraperitoneal; details: in vivo, 0.5 h
Rattus norvegicus [17] = experiment: Toxicity in Rattus norvegicus Wistar (rat) assessed as Rmax at 40 mg/kg, ip measured after 60 min by ECG analysis (reference value: 0.07 +/- 0.004 mv); type: organism-based; parameters: dose 40 mg/kg, route intraperitoneal; details: in vivo, 1 h
Rattus norvegicus [18] = experiment: Toxicity in Rattus norvegicus Wistar (rat) assessed as Rmax at 40 mg/kg, ip measured after 45 min by ECG analysis (reference value: 0.08 +/- 0.008 mv); type: organism-based; parameters: dose 40 mg/kg, route intraperitoneal; details: in vivo, 0.75 h
Rattus norvegicus [19] = experiment: Toxicity in Rattus norvegicus Wistar (rat) assessed as Rmax at 40 mg/kg, ip measured after 30 min by ECG analysis (reference value: 0.08 +/- 0.008 mv); type: organism-based; parameters: dose 40 mg/kg, route intraperitoneal; details: in vivo, 0.5 h
Rattus norvegicus [20] = experiment: Toxicity in Rattus norvegicus Wistar (rat) assessed as heart rate at 40 mg/kg, ip measured after 60 min by ECG analysis (reference value: 307.62 +/- 0.053 bpm); type: organism-based; parameters: dose 40 mg/kg, route intraperitoneal; details: in vivo, 1 h
Rattus norvegicus [21] = experiment: Toxicity in Rattus norvegicus Wistar (rat) assessed as heart rate at 40 mg/kg, ip measured after 45 min by ECG analysis (reference value: 307.62 +/- 0.023 bpm); type: organism-based; parameters: dose 40 mg/kg, route intraperitoneal; details: in vivo, 0.75 h
Rattus norvegicus [22] = experiment: Toxicity in Rattus norvegicus Wistar (rat) assessed as heart rate at 40 mg/kg, ip measured after 30 min by ECG analysis (reference value: 307.62 +/- 0.439 bpm); type: organism-based; parameters: dose 40 mg/kg, route intraperitoneal; details: in vivo, 0.5 h
Heart [23] = experiment: Inhibition of force of contraction in Hoplobatrachus tigerinus (frog) heart at log dose 3; type: functional
Rattus norvegicus [24] = experiment: Toxicity in Rattus norvegicus Wistar (rat) assessed as Rmax at 30 mg/kg, ip measured after 60 min by ECG analysis (reference value: 0.07 +/- 0.004 mv); type: organism-based; parameters: dose 30 mg/kg, route intraperitoneal; details: in vivo, 1 h
Rattus norvegicus [25] = experiment: Toxicity in Rattus norvegicus Wistar (rat) assessed as Rmax at 30 mg/kg, ip measured after 45 min by ECG analysis (reference value: 0.08 +/- 0.008 mv); type: organism-based; parameters: dose 30 mg/kg, route intraperitoneal; details: in vivo, 0.75 h
Rattus norvegicus [26] = experiment: Toxicity in Rattus norvegicus Wistar (rat) assessed as Rmax at 30 mg/kg, ip measured after 30 min by ECG analysis (reference value: 0.08 +/- 0.008 mv); type: organism-based; parameters: dose 30 mg/kg, route intraperitoneal; details: in vivo, 0.5 h
Rattus norvegicus [27] = experiment: Toxicity in Rattus norvegicus Wistar (rat) assessed as heart rate at 30 mg/kg, ip measured after 60 min by ECG analysis (reference value: 307.62 +/- 0.053 bpm); type: organism-based; parameters: dose 30 mg/kg, route intraperitoneal; details: in vivo, 1 h
Rattus norvegicus [28] = experiment: Toxicity in Rattus norvegicus Wistar (rat) assessed as heart rate at 30 mg/kg, ip measured after 45 min by ECG analysis (reference value: 307.62 +/- 0.023 bpm); type: organism-based; parameters: dose 30 mg/kg, route intraperitoneal; details: in vivo, 0.75 h
Rattus norvegicus [29] = experiment: Toxicity in Rattus norvegicus Wistar (rat) assessed as heart rate at 30 mg/kg, ip measured after 30 min by ECG analysis (reference value: 307.62 +/- 0.439 bpm); type: organism-based; parameters: dose 30 mg/kg, route intraperitoneal; details: in vivo, 0.5 h

Compound | inhibition (INH) (Heart [7]) [%] | inhibition (INH) (Heart [8]) [%] | inhibition (INH) (Heart [9]) [%] | inhibition (INH) (Heart [10]) [%] | Activity (Rattus norvegicus [17]) [mV] | Activity (Rattus norvegicus [18]) [mV] | Activity (Rattus norvegicus [19]) [mV] | Activity (Rattus norvegicus [20]) [bpm] | Activity (Rattus norvegicus [21]) [bpm] | Activity (Rattus norvegicus [22]) [bpm] | inhibition (INH) (Heart [23]) [%] | further results
CCOC(=O)C1=C(C)N(CC(O)COc2ccc(/C=N/C(=S)Nc3ccc(C(=O)O)cc3)cc2)C(=S)NC1c1cccc([N+](=O)[O-])c1 (stereo not given) | 30 | 25 | 5 | 23 |  |  |  |  |  |  |  | Activity (Rattus norvegicus [1]): 0.12 mV; Activity (Rattus norvegicus [2]): 0.05 mV; Activity (Rattus norvegicus [3]): 0.03 mV; Activity (Rattus norvegicus [4]): 399.26 bpm; Activity (Rattus norvegicus [5]): 399.26 bpm; Activity (Rattus norvegicus [6]): 399.26 bpm
CC(C)NCC(O)COc1cccc2ccccc12 (stereo not given) [PROPRANOLOL] |  |  |  |  |  |  |  |  |  |  |  | Activity (Rattus norvegicus [11]): 0.02 mV; Activity (Rattus norvegicus [12]): 0.13 mV; Activity (Rattus norvegicus [13]): 0.04 mV; Activity (Rattus norvegicus [14]): 333 bpm; Activity (Rattus norvegicus [15]): 333 bpm; Activity (Rattus norvegicus [16]): 400 bpm
CCOC(=O)C1=C(C)N(CC(O)COc2ccc(/C=N/C(=S)Nc3ccc(OC)cc3)cc2)C(=S)NC1c1cccc([N+](=O)[O-])c1 (stereo not given) | 50 | 43 | 43 | 50 | 0.14 | 0.07 | 0.04 | 300.22 | 300.22 | 315.87 |  | 
CCOC(=O)C1=C(C)N(CC(O)COc2ccc(/C=N/C(=S)Nc3ccc(OC)cc3)cc2)C(=S)NC1c1ccccc1[N+](=O)[O-] (stereo not given) | 66 | 50 | 50 | 30 | 0.13 | 0.02 | 0.09 | 266.41 | 266.41 | 272.19 |  | 
CCOC(=O)C1=C(C)N(CC(O)COc2ccc(/C=N/C(=S)Nc3ccc(Cl)cc3)cc2)C(=S)NC1c1ccccc1[N+](=O)[O-] (stereo not given) | 18 | 18 | 16 | 23 | 0.09 | 0.02 | 0.08 | 315.25 | 324.05 | 324.05 | 50 | 
COC(=O)C1=C(C)NC(C)=C(C(=O)OC)C1c1ccccc1[N+](=O)[O-] [NIFEDIPINE] |  |  |  |  |  |  |  |  |  |  |  | Activity (Rattus norvegicus [24]): 0.15 mV; Activity (Rattus norvegicus [25]): 0.1 mV; Activity (Rattus norvegicus [26]): 0.04 mV; Activity (Rattus norvegicus [27]): 521.73 bpm; Activity (Rattus norvegicus [28]): 425.61 bpm; Activity (Rattus norvegicus [29]): 363.63 bpm
CCOC(=O)C1=C(C)N(CC(O)COc2ccc(/C=N/C(=S)Nc3ccccc3OC)cc2)C(=S)NC1c1cccc([N+](=O)[O-])c1 (stereo not given) | 22 | 23 | 10 | 32 | 0.19 | 0.03 | 0.08 | 215.7 | 214.17 | 226.62 | 36 | 
CCOC(=O)C1=C(C)N(CC(O)COc2ccc(/C=N/C(=S)Nc3ccccc3OC)cc2)C(=S)NC1c1ccccc1[N+](=O)[O-] (stereo not given) | 20 | 20 | 38 | 25 | 0.13 | 0.05 | 0.1 | 266.08 | 266.08 | 266.08 | 31 | 
CCOC(=O)C1=C(C)N(CC(O)COc2ccc(/C=N/C(=S)Nc3ccc(Cl)cc3)cc2)C(=S)NC1c1cccc([N+](=O)[O-])c1 (stereo not given) | 25 | 4 | 20 | 13 | 0.07 | 0.01 | 0.03 | 260.42 | 299.78 | 323.85 |  | 
